Like-named read-outs stand apart in the source and are kept apart here.
Assays:
[1] = molecular target: Recombinant human DPP1 enzyme (Homo sapiens (Human), UniProt P53634); test: Human DPP1 Enzyme IC50 Assay; type: biochemical; conditions: human DPP1 enzyme; Table 16; read-out: IC50, nM; Human
Procedure: Recombinant human DPP1 enzyme (R&D Systems; Minneapolis, MN) was first proteolytically processed into its mature form using recombinant human cathepsin L (R&D Systems) in a buffer consisting of 20 mM citric acid pH 4.5, 150 mM NaCl, 1 mM EDTA and 10 mM DTT. Test articles were applied to activated human DPP1 enzyme in Assay Buffer (25 mM MES pH 6.0, 50 mM NaCl, 5 mM DTT) in a total reaction volume of 125 μL. 25 μL of compound in Assay Buffer plus 5% DMSO was first added to 50 μL of activated human DPP1 enzyme at a concentration of 1 ng/μL and allowed to pre-incubate for 10 minutes at 37° C. after which 50 μL of 1000 μM H-Gly-Arg-AMC substrate (Bachem; St. Torrance, CA) was added, giving final substrate concentration of 400 μM and a final DMSO concentration of 1%. Substrate cleavage was measured for 90 minutes at 37° C., with fluorescence at Excitation/Emission 350/450 nm measured every 5 minutes. DPP1 concentration was interpolated based on its activity relative to a standard curve of activated human recombinant DPP1 enzyme. IC50 values for each compound were calculated via the XLFit (IDBS Version 5.3.1.3) Add-On to Microsoft Excel using the four parameter fit equation y={A+[(B−A)]/[1+((C/x)^D)]}, which appears as equation number 205 (4 Parameter Logistic Model or Sigmoidal Dose-Response Model) in XLFit. Default constraints were used for each Parameter.

active mouse DPP1 enzyme = active mouse DPP1 enzyme (Mus musculus (Mouse), UniProt P97821); test: Mouse DPP1 Enzyme IC50 Assay; type: biochemical
Procedure: Test articles were applied to active mouse DPP1 enzyme (R&D Systems; Minneapolis, MN) in Assay Buffer (50 mM MES pH 5.5, 50 mM NaCl, 5 mM DTT) in a total reaction volume of 125 μL. 25 μL of compound in Assay Buffer plus 5% DMSO was first added to 50 μL of active mouse DPP1 enzyme at a concentration of 62.5 pg/μL and allowed to pre-incubate for 10 minutes at 37° C. after which 50 μL of 1000 μM H-Gly-Arg-AMC substrate (Bachem; St. Torrance, CA) was added, giving final substrate concentration of 400 μM and a final DMSO concentration of 1%. Substrate cleavage was measured for 90 minutes at 37° C., with fluorescence at Excitation/Emission 350/450 nm measured every 5 minutes. DPP1 concentration was interpolated based on its activity relative to a standard curve of recombinant active mouse DPP1 enzyme. IC50 values for each compound were calculated via the XLFit (IDBS Version 5.3.1.3) Add-On to Microsoft Excel using the four parameter fit equation y=(A+((B−A)/(1+((C/x)^D)))), which appears as equation number 205 (4 Parameter Logistic Model or Sigmoidal Dose-Response Model) in XLFit. Default constraints were used for each Parameter. IC50 was defined as the compound concentration at which 50% of enzyme activity was inhibited when compared to the no-compound control.

[2] = mouse DPP1 enzyme, Table 16, read-out: IC50, nM, Mouse

Sequence of Recombinant human DPP1 enzyme (P53634 25-134): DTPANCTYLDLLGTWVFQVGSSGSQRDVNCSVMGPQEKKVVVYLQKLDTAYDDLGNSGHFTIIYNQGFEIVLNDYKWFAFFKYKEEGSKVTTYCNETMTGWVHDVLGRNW
Sequence of Recombinant human DPP1 enzyme (P53634 231-394): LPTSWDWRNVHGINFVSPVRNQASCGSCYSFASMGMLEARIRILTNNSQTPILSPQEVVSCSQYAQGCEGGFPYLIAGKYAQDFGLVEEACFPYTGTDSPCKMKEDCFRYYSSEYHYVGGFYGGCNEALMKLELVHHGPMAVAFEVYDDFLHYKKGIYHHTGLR
Sequence of Recombinant human DPP1 enzyme (P53634 395-463): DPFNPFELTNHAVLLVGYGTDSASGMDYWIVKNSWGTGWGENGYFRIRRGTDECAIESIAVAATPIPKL
Sequence of active mouse DPP1 enzyme (P97821 25-134): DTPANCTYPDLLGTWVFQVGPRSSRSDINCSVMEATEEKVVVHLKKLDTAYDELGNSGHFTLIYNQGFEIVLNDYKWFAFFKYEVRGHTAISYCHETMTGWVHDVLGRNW
Sequence of active mouse DPP1 enzyme (P97821 231-393): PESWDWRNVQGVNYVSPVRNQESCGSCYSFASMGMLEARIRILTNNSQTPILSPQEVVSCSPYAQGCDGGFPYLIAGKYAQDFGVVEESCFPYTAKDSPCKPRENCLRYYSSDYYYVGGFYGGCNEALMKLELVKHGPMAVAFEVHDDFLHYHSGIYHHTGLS
Sequence of active mouse DPP1 enzyme (P97821 394-462): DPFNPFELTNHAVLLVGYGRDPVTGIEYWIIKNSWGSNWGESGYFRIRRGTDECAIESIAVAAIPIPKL

Structure (SMILES) | IC50 [1] [nM] | IC50 (active mouse DPP1 enzyme; [2]) [nM] | IC50 (active mouse DPP1 enzyme; figure legends FIG. 12 and 13, read-out: IC50, in vitro inhibition of mouse DPP1) [nM] | IC50 (active mouse DPP1 enzyme; mouse DPP1 enzyme, H-Gly-Arg-AMC substrate 400 μM, Table 13, read-out: IC50) [nM]
N#Cc1ccc(-c2ccc(C[C@@H](C#N)NC(=O)C3C[C@@H]4COC[C@@H]4N3)cc2)cc1 (some centres unmarked) | 2610 |  |  | 
Cn1c(=O)oc2ccc(-c3ccc(C[C@@H](C#N)NC(=O)CC4COCCN4)cc3)cc21 (some centres unmarked) | > 5000 | > 5000 |  | 
Cn1c(=O)oc2ccc(-c3ccc(C[C@@H](C#N)NS(N)(=O)=O)cc3)cc21 | > 5000 | > 5000 |  | 
Cn1c(=O)oc2ccc(-c3ccc(C[C@@H](C#N)NC(=O)C4(N)CCS(=O)(=O)C4)cc3)cc21 (some centres unmarked) | > 5000 | > 5000 |  | 
Cn1c(=O)oc2ccc(-c3ccc(C[C@@H](C#N)NC(=O)C4CS(=O)(=O)CCN4)cc3)cc21 (some centres unmarked) | > 5000 | > 5000 |  | 
Cn1c(=O)oc2ccc(-c3ccc(C[C@@H](C#N)NC(=O)[C@@H]4CNCCCO4)c(F)c3)cc21 |  | 8.1 |  | 
Cn1c(=O)oc2ccc(-c3ccc(CC(C#N)NC(=O)C4CNC4)cc3)cc21 (centres unmarked) | 1660 |  |  | 
N#Cc1ccc(-c2ccc(C[C@@H](C#N)NC(=O)C3CNC3)cc2)cc1 | > 5000 | 4350 |  | 
[2H]C([2H])([2H])n1c(=O)oc2ccc(-c3ccc(C[C@@H](C#N)NC(=O)C4CNC4)cc3)cc21 | 1510 |  |  | 
Cn1c(=O)oc2ccc(-c3ccc(C[C@@H](C#N)NC(=O)C4CNC4)s3)cc21 | > 5000 | 4930 |  | 
N#Cc1ccc(-c2ccc(C[C@@H](C#N)NC(=O)C3CNC3)s2)cc1 | > 5000 | > 5000 |  | 
[2H]C([2H])([2H])n1c(=O)oc2ccc(-c3ccc(C[C@@H](C#N)NC(=O)C4CNC4)s3)cc21 | 4940 |  |  | 
N#Cc1ccc(-c2ccc(C[C@@H](C#N)NC(=O)C3CNC3)c(F)c2)cc1 | 1560 | 1850 |  | 
Cn1c(=O)oc2ccc(-c3ccc(C[C@@H](C#N)NC(=O)[C@@H]4C[C@@H]5COC[C@@H]5N4)s3)cc21 | 589 | 247 |  | 
N#Cc1ccc(-c2ccc(C[C@@H](C#N)NC(=O)[C@@H]3C[C@@H]4COC[C@@H]4N3)s2)cc1 | 2270 | 366 |  | 
[2H]C([2H])([2H])n1c(=O)oc2ccc(-c3ccc(C[C@@H](C#N)NC(=O)[C@@H]4C[C@@H]5COC[C@@H]5N4)s3)cc21 | 664 |  |  | 
N#Cc1ccc(-c2ccc(C[C@@H](C#N)NC(=O)[C@@H]3C[C@@H]4COC[C@@H]4N3)c(F)c2)cc1 | 526 | 107 |  | 
Cn1c(=O)oc2ccc(-c3ccc(C[C@@H](C#N)NC(=O)C4CCCCC4)cc3)cc21 | > 5000 | > 5000 |  | 
Cn1c(=O)oc2ccc(-c3ccc(C[C@@H](C#N)NC(=O)[C@H]4C[C@@H]5COC[C@@H]5N4)cc3)cc21 | > 5000 | > 5000 |  | 
N#Cc1ccc(-c2ccc(C[C@@H](C#N)NC(=O)[C@H]3C[C@@H]4COC[C@@H]4N3)cc2)cc1 | > 5000 | > 5000 |  | 
C=C1Oc2ccc(-c3ccc(C[C@@H](C#N)NC(=O)CC4(N)CCCS(=O)(=O)C4)cc3)cc2N1C (some centres unmarked) | > 5000 |  |  | 
C[C@@H]1NCCC[C@@H]1C(=O)N[C@H](C#N)Cc1ccc(-c2ccc3oc(=O)n(C)c3c2)cc1 | 1320 |  |  | 
C[C@H]1NCCC[C@H]1C(=O)N[C@H](C#N)Cc1ccc(-c2ccc3oc(=O)n(C)c3c2)cc1 | 4480 |  |  | 
Cn1c(=O)oc2ccc(-c3ccc(CC(C#N)NC(=O)[C@@]4(C)CNCCO4)cc3)cc21 (some centres unmarked) | 1040 |  |  | 
Cn1c(=O)oc2ccc(-c3ccc(C[C@@H](C#N)NC(=O)[C@]4(C)CNCCO4)cc3)cc21 | > 5000 |  |  | 
Cn1c(=O)oc2ccc(-c3ccc(C[C@@H](C#N)NC(=O)[C@@H]4CNCCCO4)cc3)cc21 [brensocatib, reference compound] |  |  | 24.3 | 24.3
Cn1c(=O)oc2ccc(-c3ccc(C[C@@H](C#N)NC(=O)[C@@H]4CNCCCO4)cc3)cc21 [drawing 1149] |  | 27 |  | 
Cn1c(=O)oc2ccc(-c3ccc(C[C@@H](C#N)NC(=O)[C@@H]4C[C@@H]5COC[C@@H]5N4)cc3)cc21 [drawing 1156] | 940 |  |  | 
Cn1c(=O)oc2ccc(-c3ccc(C[C@@H](C#N)NC(=O)C4CNCC45CCC5)cc3)cc21 (some centres unmarked) [drawing 1229] | 1220 |  |  | 
